Measurements as given in PubChem BioAssay (NCI).
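A five-concentration, 48-hour dose response in 96-well plates underlies each endpoint, interpolated linearly between surrounding concentrations. TGI denotes the concentration required for complete inhibition of growth.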

How the values were obtained:
Assay in all cases: NCI-60 cell line screen, 48 h
RXF 393 renal = tested on: RXF 393 renal
T-47D breast = tested on: T-47D breast
MALME-3M melanoma = tested on: MALME-3M melanoma
SF-268 CNS = tested on: SF-268 CNS
MDA-MB-231 breast = tested on: MDA-MB-231 breast
RPMI-8226 leukemia = tested on: RPMI-8226 leukemia
NCI-H522 lung = tested on: NCI-H522 lung
A498 renal = tested on: A498 renal
SNB-19 CNS = tested on: SNB-19 CNS
CCRF-CEM leukemia = tested on: CCRF-CEM leukemia
IGROV1 ovarian = tested on: IGROV1 ovarian
SF-295 CNS = tested on: SF-295 CNS
HL-60(TB) leukemia = tested on: HL-60(TB) leukemia
M14 melanoma = tested on: M14 melanoma
ACHN renal = tested on: ACHN renal
K-562 leukemia = tested on: K-562 leukemia
OVCAR-4 ovarian = tested on: OVCAR-4 ovarian
SK-OV-3 ovarian = tested on: SK-OV-3 ovarian
HCT-116 colon = tested on: HCT-116 colon
HCC-2998 colon = tested on: HCC-2998 colon

SMILES	TGI (RXF 393 renal) [µM]	TGI (T-47D breast) [µM]	TGI (MALME-3M melanoma) [µM]	TGI (SF-268 CNS) [µM]	TGI (MDA-MB-231 breast) [µM]	TGI (RPMI-8226 leukemia) [µM]	TGI (NCI-H522 lung) [µM]	TGI (A498 renal) [µM]	TGI (SNB-19 CNS) [µM]	TGI (CCRF-CEM leukemia) [µM]	TGI (IGROV1 ovarian) [µM]	TGI (SF-295 CNS) [µM]	TGI (HL-60(TB) leukemia) [µM]	TGI (M14 melanoma) [µM]	TGI (ACHN renal) [µM]	TGI (K-562 leukemia) [µM]	TGI (OVCAR-4 ovarian) [µM]	TGI (SK-OV-3 ovarian) [µM]	TGI (HCT-116 colon) [µM]	TGI (HCC-2998 colon) [µM]
CC1=CCC(C)=Nc2nc3ccccc3n21	> 100	> 100	> 100	> 100	> 100	> 100	> 100	> 100	> 100	> 100	> 100	> 100	> 100	> 100	> 100	> 100	> 100	> 100	> 100	
CC(C)N(C(=O)C1(O)c2ccccc2C=Cc2ccccc21)C(C)C		37.1	31.5	36	29.3	> 100	25.3	29.8	44.4		28.8	33.7		40.1	29.5		52	53.9	32.8	
COc1ccc(OC)c(C(Cc2ccnc3ccccc23)Cc2ccnc3ccccc23)c1	> 10	> 10		> 10	> 10	> 10	> 10	> 10	> 10	> 10	> 10	> 10		> 10	> 10	> 10	> 10	> 10	> 10	> 10
COC(=O)c1c(C#N)[nH]c(-c2ccsc2)c1C(=O)OC	> 100	> 100	> 100	> 100	> 100	> 100	> 100	> 100		> 100	> 100	> 100		> 100	> 100	> 100		> 100	> 100	
CCOC(=O)c1c(NC(=O)OC)c(C#N)c2n1CCCCC2	> 100	> 100		> 100	91.7	> 100		> 100	> 100	> 100	> 100	> 100	> 100	> 100	> 100	> 100	> 100	> 100	> 100	> 100
CN1CCc2c(sc3ncn(C)c(=N)c23)C1	> 100	> 100	> 100	> 100	> 100	> 100	> 100	> 100	> 100	> 100	> 100	> 100	> 100	> 100	> 100	> 100	> 100	> 100	> 100	
CCOC(=O)c1nc2ccc(C(F)(F)F)cc2[nH]c1=O	> 100	> 100		> 100	> 100	> 100		> 100	> 100	> 100	> 100	> 100	> 100	> 100	> 100	> 100	> 100	> 100	> 100	> 100
O=C(O)c1nc2ccc(C(F)(F)F)cc2nc1NCc1ccc(F)cc1	> 100	> 100			81.4	> 100		55.4	> 100	> 100	> 100	81.1		61.7	> 100	55.6	> 100	93	29.4	65.6
Cc1cc(C)c(C(=O)c2nnc3ccccc3c2N)c(C)c1		56.6		> 100	63.8	> 100		> 100	> 100	> 100	46.7		73.4	34	> 100			> 100	23.6	
Oc1cc(O)cc(-c2nc3cc(F)ccc3s2)c1	72.4	51.4	> 100	50.8	55.8	50.2	36.9	47.1	97.2	> 100	70.9	36		50.1	81.3		63.7	70.4	65.5	
N#Cc1[nH]c(=S)[nH]c1N	> 100		> 100	> 100			> 100	> 100	> 100	> 100	> 100	> 100	> 100		> 100	> 100	> 100	> 100	> 100	> 100
N#CC1=C(Nc2ccccc2)SC=C(c2ccccc2)NC1=NCc1ccccc1	> 100	> 100	> 100	> 100	> 100	> 100	> 100	> 100	> 100					> 100	> 100	97.6	> 100	> 100	> 100	
O=C(Oc1ccccc1)N1c2ccccc2[C@@]23O[C@]24CCC[C@H]3C#C/C=C\C#C[C@H]14	21.8	22	22.1	43.2	24.8	32.9		27.6	29.1	> 100	24.9	30.9	26.1	30.6		> 100	23.3	17.1	24.2	
COC1=CC2C(c3cc4ccccc4n3S(=O)(=O)c3ccccc3)CC1CN2C(=O)OCc1ccccc1 (stereo not drawn)	69.2		61		58.7	44.6	52.9			> 100	> 100	> 100	41.9	51.2	> 100	76.5	> 100	98.1	> 100	> 100
COc1cc(O)c(C(=O)/C=C/c2ccc(O)cc2)cc1Oc1ccc(/C=C/C(=O)c2ccc(O)cc2O)cc1	17.5	> 50	17.6	20.5	36.7	17.6	16	14.1	43.1	29.4	15	18.2	34	17.4	15.7	22.8	16	15.9	14.7	
COc1cc(C(C)=O)cc(C(=O)N(C(C)C)C(C)C)c1[Si](C)(C)C		> 100		> 100	> 100		> 100	> 100	> 100	> 100	> 100	> 100	> 100	> 100	> 100		> 100	99.2	> 100	
CN1C(=O)CSC1=S	> 100		> 100	> 100		> 100	> 100	> 100		> 100	> 100	> 100	> 100	> 100	> 100	> 100	> 100	> 100	> 100	
O=C1/C(=C/c2cccc(Br)c2)Cc2ccccc21			> 100	> 100	> 100	> 100	> 100		> 100	> 100	> 100	> 100	> 100	> 100	> 100	> 100	> 100	> 100	> 100	
COc1ccc(NC(=O)N(C)CC2(O)CCC(C(C)(C)C)CC2)cc1 (stereo not drawn)	92.9		99.3	> 100	> 100	72.5	> 100	> 100	> 100	> 100	> 100	91.7	> 100	> 100	> 100	> 100	> 100	> 100	> 100	
COc1ccc(-n2cnn3c(=O)c4cn[nH]c4nc23)cc1			> 10	> 10			> 10		> 10	> 10		> 10	> 10	> 10	> 10	> 10	> 10	> 10	> 10	> 10
CCC(=O)O[C@H]1CC[C@H]2[C@@H]3CCC4=C/C(=N/OC(=O)c5cccc6c(=O)c7ccccc7[nH]c56)CC[C@]4(C)[C@H]3CC[C@]12C	45.4	> 100		> 100	> 100	54.7	56.1	77.7	> 100	57.5	77.6	> 100		77.7	> 100	47	> 100	> 100		41.2
CN(C)CCNC(=O)c1ccc2nc3c(nc2c1)C(=O)c1ccccc1-3	> 100		82.3	> 100		63.3	> 100	> 100	> 100	39.3	> 100	> 100	38.2	> 100	> 100		> 100	> 100	> 100	> 100
COC(=O)c1ccccc1Nc1nc(-c2cccs2)nc2cc(OC)c(OC)cc12	> 100	> 100	> 100	> 100	> 100	> 100	> 100	> 100	> 100		74.7	97.7	> 100	> 100	> 100	> 100	> 100	> 100	> 100	
COc1ccc(-c2csc(Cc3nc4ccccc4c(=O)n3-c3ccc(Cl)cc3)n2)cc1	> 100		> 100	> 100	> 100	45.8	> 100	> 100	77.7	> 100	> 100	> 100	> 100	65.1	> 100	41.8	> 100	> 100	57.9	> 100
Fc1ccc(C(=C2CCN(CCc3ccc4[nH]c(=S)[nH]c4c3)CC2)c2ccc(F)cc2)cc1	3.49	4.1	3.89	25.9	15	8.67	3.65	25	27.9	> 20.6	17	18.8	4.63	2.9	24.1	> 100	12.7	36.8	3.47	
COc1ccc(-c2nc(-c3cc4c(ccc5ccccc54)oc3=O)cs2)cc1	> 100	> 100		> 100	> 100	> 100			> 100	> 100	> 100	> 100	> 100	> 100	> 100	> 100	> 100	> 100	> 100	> 100
CC1(C)CC(=O)C(C=NC(=O)c2ccncc2)=C(O)C1	> 100			> 100	> 100		> 100		> 100	> 100	> 100	> 100	> 100	> 100	> 100		> 100	> 100	> 100	> 100
